Tests used:
[1] = Stability of the crystalline modification with regard to conversion into another form; conditions: for stability of the crystalline modification: solid forms of topramezone compared
[2] = Stability of formulations (e.g. aqueous suspension concentrates) comprising the solid form; assay type: physicochemical; conditions: compared between forms
[3] = Stability of the solvate at room temperature (release of solvent, conversion); assay type: physicochemical
Protocol: (§1) Crystallization of topramezone by evaporation of a solution of topramezone in a mixture of toluene with dichloromethane in the volume ratio 2:1 at temperatures below 30° C., in particular at temperatures in the range from 10 to 30° C. yields an unstable solvate V-S, which comprises 1 mol of toluene per mol of topramezone.
as §1, with “chlorobenzene” for “toluene”, “dichloromethane” for “dichloromethane in the volume ratio 2:1”, “VI-S,” for “V-S,”
Crystallization of topramezone by evaporation of a solution of topramezone in dichloromethane at temperatures below 30° C., in particular at temperatures in the range from 10 to 30° C. yields an unstable solvate VII-S, which comprises dichloromethane.

SMILES | stability of the crystalline modification [1] | stability of formulations which comprise the form [2] | other results
Cc1c(C(=O)c2cnn(C)c2O)ccc(S(C)(=O)=O)c1C1=NOCC1 [form I, [3-(4,5-dihydro-3-isoxazolyl)-2-methyl-4-(methylsulfonyl)phenyl]-(5-hydroxy-1-methyl-1H-pyrazol-4-yl)methanone] | stable | markedly higher | stability with regard to conversion into another form ([1]; compared to other solid forms): increased stability
Cc1c(C(=O)c2cnn(C)c2O)ccc(S(C)(=O)=O)c1C1=NOCC1 [form II, [3-(4,5-dihydro-3-isoxazolyl)-2-methyl-4-(methylsulfonyl)phenyl]-(5-hydroxy-1-methyl-1H-pyrazol-4-yl)methanone] | lower stability | lower stability | –
Cc1c(C(=O)c2cnn(C)c2O)ccc(S(C)(=O)=O)c1C1=NOCC1 [form III, [3-(4,5-dihydro-3-isoxazolyl)-2-methyl-4-(methylsulfonyl)phenyl]-(5-hydroxy-1-methyl-1H-pyrazol-4-yl)methanone] | lower stability | lower stability | –
Cc1c(C(=O)c2cnn(C)c2O)ccc(S(C)(=O)=O)c1C1=NOCC1 [form IV, [3-(4,5-dihydro-3-isoxazolyl)-2-methyl-4-(methylsulfonyl)phenyl]-(5-hydroxy-1-methyl-1H-pyrazol-4-yl)methanone] | lower stability | lower stability | –
Cc1c(C(=O)c2cnn(C)c2O)ccc(S(C)(=O)=O)c1C1=NOCC1 [form V-S] | lower stability | – | behaviour of the solvate at room temperature ([3]; listed as solvate V-S): releasing the solvent again and then forms a mixture of the forms II and IV; stability of formulations which comprise the form ([2]; listed as solvate V-S): lower stability
Cc1c(C(=O)c2cnn(C)c2O)ccc(S(C)(=O)=O)c1C1=NOCC1 [form VI-S] | lower stability | – | behaviour of the solvate at room temperature ([3]; listed as solvate VI-S): releasing the solvent again and then forms the form II; stability of formulations which comprise the form ([2]; listed as solvate VI-S): lower stability
Cc1c(C(=O)c2cnn(C)c2O)ccc(S(C)(=O)=O)c1C1=NOCC1 [form VII-S] | lower stability | – | behaviour of the solvate at room temperature ([3]; listed as solvate VII-S): releasing the solvent again and then forms the form I; stability of formulations which comprise the form ([2]; listed as solvate VII-S): lower stability
Cc1c(C(=O)c2cnn(C)c2O)ccc(S(C)(=O)=O)c1C1=NOCC1 [form VIII, [3-(4,5-dihydro-3-isoxazolyl)-2-methyl-4-(methylsulfonyl)phenyl]-(5-hydroxy-1-methyl-1H-pyrazol-4-yl)methanone] | lower stability | lower stability | –

— patent US20100197502A1, “Crystalline form of [3-(4,5-dihydro-3-isoxazolyl)-2-methyl-4-(methylsulfonyl)phenyl]-(5-hydroxy-1-methyl-1H-pyrazol-4-yl)methanone” (priority 2007, published 2010)
